Publication PMC6148246, “HS-1371, a novel kinase inhibitor of RIP3-mediated necroptosis” (Experimental & Molecular Medicine, 2018)

What was measured:
RIP3 [1] = molecular target: T1, RIP3 (Homo sapiens, UniProt Q9Y572); assay: Basal S227 auto-phosphorylation of RIP3 in HT-29 cells (immunoblot); assay type: cell-based; parameters: RIP3-expressing HT-29 cells; endogenous in cells; host or cells: HT-29; details: 10 μM, 9 h
Method: (§1) Cells were rinsed in cold phosphate-buffered saline (PBS) and lysed in M2 buffer containing 20 mM Tris at pH 7, 0.5% NP-40, 250 mM NaCl, 3 mM EDTA, 3 mM EGTA, 2 mM DTT, 0.5 mM PMSF, 20 mM β-glycerol phosphate, 1 mM sodium vanadate, and 1 μg/mL leupeptin. The cell extracts were subjected to western blot analysis. For immunoprecipitation, lysates were mixed and precipitated with antibody and protein A-agarose beads overnight or for 4 h at 4 °C. Bound proteins were removed by boiling in SDS and resolved by SDS-PAGE, and immunoblotting was visualized by enhanced chemiluminescence (ECL, Amersham).
RIP3 kinase activity is essential for TNF-induced necroptosis, and human S227 auto-phosphorylation sites of RIP3 are required for the interaction of RIP3 with its substrate MLKL[13],[14], which is indispensable for downstream necroptotic cell death signaling. To test the possible effects of the RIP3 inhibitors on necroptosis, HT-29 cells were treated with the kinase inhibitors, and RIP3 kinase activity was determined by examining its phosphorylation status.
(§2) Fig. 2 Novel inhibitors can block RIP3 S227 phosphorylation. a Western blotting showing various kinase inhibitor effects on RIP3 S227 auto-phosphorylation. HT-29 cells were treated with four tested kinase inhibitors (1308, 1336, 1338, and 1371, 10 μM) for 9 h. As a control, KK5101 (Trk alpha inhibitor) and HS829 (IKK beta inhibitor) were also treated at a concentration of 10 μM for 9 h. Prototypical necroptosis stimuli (TNF + zVAD + either cycloheximide or SMAC mimetic; hereafter referred to as TCZ or TSZ) were applied for 6 h. […] HT-29 cells were treated with 4 tested kinase inhibitors for 24 h, and cell viability was analyzed by MTT assay or phase-contrast microscopy. […] HT-29 cells were pretreated with necrostatin-1 (Nec-1, 40 μM), dabrafenib (DAB, 10 μM) or necrosulfonamide (NSA, 1 μM) for 2 h and then treated with TSZ for 6 h. […] HT-29 cells were pretreated with four tested kinase inhibitors for 2 h and then treated with TSZ for 6 h. Cell lysates were analyzed by immunoblotting. f HT-29 cells were pretreated with Nec-1 (40 μM), DAB (5 μM) or HS-1371 (5 μM) for 2 h and then treated with TSZ for 4 h. Cell lysates were immunoprecipitated with anti-RIP3 antibody. Immunoprecipitates and total lysates were analyzed by Western blotting

RIP3 [2] = molecular target: T1, RIP3; assay: S227 auto-phosphorylation of overexpressed RIP3 in 293T cells (immunoblot); assay type: cell-based; details: 293T cells transfected with Flag-hRIP3
Description: TNFα Smac mimetic and the caspase inhibitor zVAD (hereafter referred to as TSZ) is a classical combination that is used to induce RIP3-mediated necroptotic cell death[10],[32]. We first verified that three established pharmacological inhibitors of necroptosis, necrostatin-1 (Nec-1), necrosulfonamide (NSA), and dabrafenib (DAB) could block TNF-induced necroptosis (Fig. 2d). Of these inhibitors, Nec-1 inhibits RIP1 kinase activity[33],[34], DAB inhibits RIP3 kinase activity, and NSA inhibits MLKL functions downstream of RIP3 phosphorylation. […] Next, we tested whether these four inhibitors would inhibit TNF-induced necroptosis signaling by blocking RIP3 kinase activity. […] The effect of HS-1371 on RIP3 kinase activity was compared with another RIP3 inhibitor, GSK’872[16]. […]
(a) Overexpression of RIP3 could induce S227 phosphorylation without stimuli. […] After cells were harvested, cell lysates were analyzed by […]
kinase inhibitor. HT-29 cells were treated with HS -1371 or GSK’872 indicated concentrations for 9 h, and cell lysates were analyzed by immunoblotting.
(c) Cytotoxicity of HS-1371 was compared with GSK’872. HT-29 cells were treated with 2 kinase inhibitors for 24 h and cell viability was analyzed by MTT assay.
(d) Inhibition of MLKL phosphorylation by HS-1371 was compared with other two RIP3 kinases inhibitors, DAB (5 μM) and GSK’872 (5 μM). […] Cell lysates were analyzed by […]

p-MLKL = assay: Phospho-MLKL immunofluorescence in HT-29 cells; assay type: cell-based, human; details: HT-29, immunofluorescence
Method: HT-29 cells were fixed in 4% paraformaldehyde for 10 min. To stain phospho-MLKL, cells were permeabilized with 0.25% Triton X-100 for 10 min. After incubation in a blocking buffer (10% fetal bovine serum in DPBS) for 30 min, the primary antibody to phospho-MLKL was incubated overnight at 4 °C, and FITC-conjugated secondary antibody (goat anti-rabbit IgG, 1:250, dilution, Invitrogen) was incubated for 1 h at room temperature. A mounting medium containing DAPI (VECTASHIELD, Cat No. 94010, Vector Laboratories) was used for counterstaining. Representative images were taken by confocal microscope.
HT-29 cells were pretreated with four tested inhibitors for 2 h and then treated with TSZ (6 h for immunoblotting, 24 h for cell death assay). Cell lysates were analyzed by immunoblotting, and cell viability was analyzed by MTT assay or phase-contrast microscopy. The results are presented as the means ± SEM. *P < 0.05, **P < 0.01, ***P < 0.001. b Protection of necroptosis by HS-1371 treatment is similar with dabrafenib, which abolished downstream events. HT-29 cells were pretreated with various necroptosis inhibitors and HS-1371 before TSZ treatment. Cell lysates were analyzed by immunoblotting, and cell viability was analyzed by MTT assay (left panel). Cells were stained with phospho-MLKL antibody and analyzed by confocal fluorescence microscopy (middle panel), and cell death was further analyzed by FACS analysis after PI staining (right panel). c HS-1371 protects cells from TNF-induced necroptosis in a dose-dependent manner. HT-29 cells were pretreated with indicated concentrations of HS-1371 and then treated with TSZ (6 h for immunoblotting, 24 h for cell death assay). Cell lysates were analyzed by immunoblotting, and cell viability was analyzed by MTT assay or phase-contrast microscopy. The results are presented as means ± SEM. *P < 0.05, **P < 0.01, ***P < 0.001 TEXT PRINTED IN THE PICTURE: (b) TSZ: 20.7 | (b) TSZ + Nec-1: 5.8 | (b) TSZ + DAB: 5.5 | (b) TSZ + 1371: 6.8 DOUBTS OF THE COPYIST ABOUT THIS PICTURE: Panel b, flow cytometry plots: the red gate numbers are printed without a measure or unit, so none is given / Panel b: the 'Untreated' control plot prints 7.7; left out because it is not a substance

RIP3 [3] = molecular target: T1, RIP3; assay: TNF (TSZ)-induced RIP3 and MLKL phosphorylation in HT-29 cells (immunoblot); assay type: cell-based; parameters: RIP3-expressing HT-29 cells; endogenous in cells; host or cells: HT-29; details: HT-29; Nec-1 40 μM, DAB 10 μM, NSA 1 μM pretreated 2 h, TSZ 6 h
Method: as §1, §2
TNFα Smac mimetic and the caspase inhibitor zVAD (hereafter referred to as TSZ) is a classical combination that is used to induce RIP3-mediated necroptotic cell death[10],[32]. We first verified that three established pharmacological inhibitors of necroptosis, necrostatin-1 (Nec-1), necrosulfonamide (NSA), and dabrafenib (DAB) could block TNF-induced necroptosis (Fig. 2d). Of these inhibitors, Nec-1 inhibits RIP1 kinase activity[33],[34], DAB inhibits RIP3 kinase activity, and NSA inhibits MLKL functions downstream of RIP3 phosphorylation. […] Next, we tested whether these four inhibitors would inhibit TNF-induced necroptosis signaling by blocking RIP3 kinase activity. […] The effect of HS-1371 on RIP3 kinase activity was compared with another RIP3 inhibitor, GSK’872[16].

T1 sequence (Q9Y572 whole entry): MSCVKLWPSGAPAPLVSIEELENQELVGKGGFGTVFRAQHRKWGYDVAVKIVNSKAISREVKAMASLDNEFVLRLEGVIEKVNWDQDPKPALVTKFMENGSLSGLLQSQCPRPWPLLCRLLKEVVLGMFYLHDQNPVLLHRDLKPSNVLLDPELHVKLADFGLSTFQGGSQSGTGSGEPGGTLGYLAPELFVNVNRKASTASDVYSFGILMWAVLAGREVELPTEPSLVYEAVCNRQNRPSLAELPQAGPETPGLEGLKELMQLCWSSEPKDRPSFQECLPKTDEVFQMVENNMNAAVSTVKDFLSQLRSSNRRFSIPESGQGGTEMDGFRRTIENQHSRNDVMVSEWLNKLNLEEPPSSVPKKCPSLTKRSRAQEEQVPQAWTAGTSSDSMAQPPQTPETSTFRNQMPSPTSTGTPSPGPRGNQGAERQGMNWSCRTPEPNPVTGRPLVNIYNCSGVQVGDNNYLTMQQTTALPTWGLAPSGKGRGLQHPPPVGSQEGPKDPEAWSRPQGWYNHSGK

| S227 auto-phosphorylation of overexpressed RIP3 (RIP3 [2]) | Structure (SMILES) | effect on S227 auto-phosphorylation of RIP3 at the basal level (RIP3 [1]) | p-MLKL detection / translocation after TSZ (p-MLKL) | block of TNF-induced necroptosis (RIP3 phosphorylation) (RIP3 [3]) |
| --- | --- | --- | --- | --- |
| – | Fc1ccccc1Nc1ccnc2cc(-c3cnn(C4CCNCC4)c3)ccc12 [HS-1308] | inhibitory effect | – | – |
| – | Fc1ccc(Oc2ccnc3cc(-c4cnn(C5CCNCC5)c4)ccc23)c(F)c1 [HS-1336] | inhibitory effect | – | – |
| – | Fc1cccc(Oc2ccnc3cc(-c4cnn(C5CCNCC5)c4)ccc23)c1 [HS-1338] | inhibitory effect | – | – |
| inhibited | CC(C)(C)c1nc(-c2cccc(NS(=O)(=O)c3c(F)cccc3F)c2F)c(-c2ccnc(N)n2)s1 [dabrafenib] | – | no detection of p-MLKL | could block |
| – | CN1C(=O)C(Cc2c[nH]c3ccccc23)NC1=S (stereo not shown) [necrostatin-1, reference compound] | – | no detection of p-MLKL | could block |
| – | COc1nccnc1NS(=O)(=O)c1ccc(NC(=O)/C=C/c2ccc([N+](=O)[O-])s2)cc1 [necrosulfonamide, reference compound] | – | could not translocate into the plasma membrane | could block |
